Experimental data: patent US20180085392A1, “CYCLODEXTRIN COMPOUNDS FOR THE PREVENTION AND TREATMENT OF AGING” (SENS RESEARCH FOUNDATION, INC., priority 2015, published 2018)
“And” between values parts separate entries of the source, which are not always exact repeats. Equal entries are not always repeated.

Assays:
TFEB = test: RT-PCR analysis of major lysosome genes; format: cell-based; conditions: NC w/CD and PC w/CD at day 10 compared to PC
Procedure: (§1) To address the mechanisms by which cyclodextrin treatment can remove lipofuscin from cells, a RT-PCR analysis of major lysosome genes was performed (FIG. 9). Healthy cells treated with cyclodextrin (“NC w/CD”), lipofuscin loaded cells (“PC”), and lipofuscin loaded cells treated with cyclodextrin (“PC w/CD”) were maintained for 10 days. Following the 10 day period, RT-PCR was performed on each cell population in order to ascertain the regulation status of the major lysosome genes ULK1, TFEB, and HMOX.

ULK1 = test: RT-PCR analysis of major lysosome genes; format: cell-based; conditions: NC w/CD and PC w/CD at day 10 compared to PC
Procedure: as §1

fibroblasts [1] = test: Confocal microscopy of lipofuscin in fibroblasts; format: cell-based; conditions: after 8 days (FIG. 5)
Description: FIG. 5 provides representative confocal photomicrographs wherein the accumulation of lipofuscin in fibroblasts that were either treated with HPβCD or were not treated with HPβCD was fluorescently imaged over the course of 8 days.

fibroblasts [2] = test: Fluorescence imaging of native lipofuscin in fibroblasts; format: cell-based; conditions: for native lipofuscin autofluorescence versus untreated cells: fibroblasts maintained 16 days, cyclodextrin during days 1-8 (FIG. 7A-B)
Procedure: Healthy fibroblasts were passaged (˜P25) and grown to confluency in media. The cells in FIG. 7A (“untreated”) were maintained for 16 days; likewise, the cells in FIG. 7B (“treated”) were maintained for 16 days, however, cyclodextrin was added to the treated cells during days 1-8. Following the 16 day period of cell maintenance, lipofuscin levels were observed using fluorescence imaging as lipofuscin appears as a bright red autofluorescent material during fluorescence-based imaging. […] In order to ascertain whether or not the untreated or treated fibroblasts appeared healthy after the 16 day period of maintenance, both the untreated and treated fibroblasts were imaged with 60× magnification using light microscopy.

human skin fibroblasts = test: CCK-8 cell viability assay; format: cell-based; conditions: days 4, 7 and 10; NC+CD and T versus NC and PC
Procedure: In order to determine whether cells were still viable when treated with cyclodextrin, a CCK-8 assay was performed on cells (human skin fibroblasts, Coriell Cell Repositories, Catalog #GM00498) over the course of a 10 days period (FIG. 8). On each day 4, day 7, and day 10, the viability of the cells was ascertained through a CCK-8 assay whereby colorimetric change was indicative of change in the cell viability status. The cell populations tested on day 4, day 7, and day 10 were healthy negative control cells (NC), healthy cells treated with cyclodextrin (NC+CD), lipofuscin loaded cells (PC), and lipofuscin loaded cells treated with cyclodextrin (T). […] FIG. 8 also presents blanks that were used as controls (the blanks appear circled in red in FIG. 8).

[3] = tested on: human skin cells (human fibroblast cells); test: Flow cytometry of non-bisretinoid lipofuscin content per cell; format: cell-based; conditions: for total non-bisretinoid lipofuscin content, Average / total non-bisretinoid lipofuscin content, individual samples 1-4: 2HPβCD for five days
Description: Table 3 and FIG. 4 presents data obtained from the treatment of human fibroblast cells with 10 rng/ml 2HPβCD for five days.
The values of Table 3 represent total non-bisretinoid lipofuscin content measured in fluorescent units per cell using a BD FACSCANTO™ II flow cytometer (BD Biosciences, San Jose, Calif.). Measurements were made with a 488 nm blue argon laser with a 530/30 nm FITC band pass filter. The total cell population size for each individual sample measurement was n>15,000 cells.

[4] = tested on: cholesterol present in a cell population; test: Filipin staining of cellular cholesterol; format: cell-based; conditions: for cholesterol content of cells by filipin stain: after 4 days of maintenance, 100× (FIG. 11A-D)
Procedure: To further address the mechanism by which cyclodextrin treatment can decrease the concentration of lipofuscin in cells, filipin staining experiments were performed (FIG. 10A-D, FIG. 11A-D, and FIG. 12A-D). Filipin stain can be used to visualize the cholesterol present in a cell population. FIG. 10A and FIG. 10C provide representative photomicrographs of two different cell populations before confluency. Four days after the time the micrographs in FIG. 10A and FIG. 10C were produced, a filipin stain was applied to both cell populations (FIG. 10B and FIG. 10D), however, in the case of FIG. 10D, the cell population was treated with cyclodextrin for 3.5 hours before the filipin staining procedure. […] In order to measure the effects of long term cyclodextrin treatment, untreated healthy cells (NC), healthy cells treated with cyclodextrin (NC w/CD), untreated cells loaded with lipofuscin (PC), and cells loaded with lipofuscin and treated with cyclodextrin (PC w/CD) were filipin stained and imaged at 100× magnification after 4 days of maintenance (FIG. 11A-D) and were filipin stained and imaged at 200× magnification after 9 days of cell maintenance (FIG. 12A-D).

[5] = tested on: NC and PC cell populations; test: Cell survival after exposure to lysomotropic agent MSDH; format: cell-based; conditions: for cell survival after MSDH: 45 μM MSDH for 42 hours; for cell death after MSDH: 55 μM MSDH for 42 hours
Procedure: To further elucidate the mechanism by which cyclodextrin can decrease the concentration of lipofuscin in cells, an assay in which the lysomotropic agent MSDH was administered to cells in order to measure the effect of cyclodextrin administration on cellular health post-MSDH treatment was performed (FIG. 13A-D and FIG. 14A-D). FIG. 13A-D provides representative photomicrographs of NC, PC, NC w/CD, and PC w/CD cell populations after 42 hours of exposure to 45 μM of MSDH. […] FIG. 14A-D provides representative photomicrographs of NC (FIG. 14A), PC (FIG. 14B), NC w/CD (FIG. 14C), and PC w/CD (FIG. 14D) cell populations, respectively, after the populations were exposed to an increased level of MSDH for an increased […] (55 μM for 42 hours). […] The results of FIG. 14A-D were indicative of different degrees of lysosomal membrane cholesterol composition change pending cyclodextrin treatment and lipofuscin levels, with the aged lipofuscin loaded cells treated with cyclodextrin being the most resistant to MSDH treatment (FIG. 14D).

THP-1 cells = test: Acridine orange uptake assay for lysosomal membrane permeabilization; format: cell-based
Procedure: To prepare FIG. 3A-B, THP-1 cells were exposed to different LDL treatments over 7 days and then assessed for lysosomal membrane permeabilization using an acridine orange uptake assay. In FIG. 3A: Acridine orange was excited at 488 nm and emissions recorded at 633 and 520 nm. Higher signal intensities at 520 nm and lower intensities at 633 nm were indicative of lysosomal instability. 7KC-LDL induced lysosomal membrane permeabilization that was attenuated by HβCD that was added to samples on day 6. In FIG. 3B: Flow cytometry signal are presented as intensities as a percent of control (normal LDL-treated). […] Although both the 633 nm and 520 nm signal intensities decreased after HβCD amendment for oxLDL and 7KC-LDL, the decrease in the 520 nm signal was of greater magnitude, thereby indicating increased lysosomal stability.

[6] = tested on: lipofuscin loaded cells (PC cells) (human skin fibroblasts); test: Autofluorescence of lipofuscin loaded cells (removal of pre-existing lipofuscin); format: cell-based; conditions: PC cells treated day 5 to day 10 and further 48 hours; untreated 13%; p 0.05
Procedure: FIG. 6 provides representative quantified data of the autofluorescence of lipofuscin loaded cells (PC cells) (human skin fibroblasts, Coriell Cell Repositories, Catalog #GM00498) either untreated or treated with CD in order to track the removal of lipofuscin already present within the PC cells. To perform the assay, PC cells were allowed to grow for 5 days, and the PC cells were treated such that lipofuscin was produced only from day 1 through […]. After 5 days, one population of cells (“treated population”, PC+cyclodextrin in FIG. 6) was treated with cyclodextrin from day 5 to day 10, whereas a second population of cells (“untreated population”, PC only in FIG. 6) remained untreated from day 5 to day 10. On day 10, lipofuscin levels were measured for both cell populations. Following this measurement, the untreated population was placed in media only for 48 hours whereas the treated population was placed in media containing cyclodextrin for 48 hours. 48 hours following this transfer of the cell populations to their respective media, the lipofuscin levels of both the untreated and treated populations were again measured. […] The p-value comparing the percentage differences between the treated and untreated populations was 0.05. […]

cultured cells = conditions: cited from earlier work
[7] = Aged Human Skin Cells + 2-HPCD (Test)
[8] = Human Skin Cells + 2-HPCD (Negative Control + Drug)

## 2-hydroxypropyl-β-cyclodextrin [HPβCD]
TFEB
  regulation of TFEB: no upregulation
ULK1
  regulation of ULK1: no upregulation
Fibroblasts [1]
  lipopigment accumulation (fluorescence) versus untreated fibroblasts: lower lipopigment accumulation
Fibroblasts [2]; after 16 day period, 60× magnification (FIG. 7C-D)
  appearance of treated fibroblasts by light microscopy: appeared to be healthy
Fibroblasts [2]
  native lipofuscin autofluorescence versus untreated cells: visibly decreased
Fibroblasts [2]; listed as cyclodextrin
  native lipofuscin autofluorescence versus untreated cells: significantly reduced
Human skin fibroblasts
  cell viability, colorimetric change in CCK-8 assay: no visible colorimetric difference
[3]; [7]
  total non-bisretinoid lipofuscin content, Average: 6131 fluorescent units per cell
  total non-bisretinoid lipofuscin content, individual samples 1-4: 6278 fluorescent units per cell and 6453 fluorescent units per cell and 5982 fluorescent units per cell and 5809 fluorescent units per cell
[3]; [8]
  total non-bisretinoid lipofuscin content, Average: 2600 fluorescent units per cell
  total non-bisretinoid lipofuscin content, individual samples 1-4: 2552 fluorescent units per cell and 2564 fluorescent units per cell and 2638 fluorescent units per cell and 2647 fluorescent units per cell
[3]; aged human skin cells, 5-day treatment (FIG. 4)
  lipofuscin levels by flow cytometry fluorescence (in words): decreased
[3]; aged human skin cells, 5-day treatment, p<0.00001
  reduction of non-bisretinoid lipofuscin: 31.4%
[4]
  cholesterol content of cells by filipin stain: increased
[4]; listed as cyclodextrin
  cholesterol content of cells by filipin stain: reduction of the cholesterol content
[4]; long term treatment, after 9 days of maintenance, 200× (FIG. 12A-D)
  overall cellular levels of cholesterol by filipin stain: increase the overall cellular levels of cholesterol
[4]; treated for 3.5 hours before staining (FIG. 10D vs 10B)
  total cholesterol by filipin stain: reduction in total cholesterol
[5]; NC w/CD (healthy cells), untreated NC killed
  cell survival after MSDH: able to survive
[5]; NC w/CD (healthy cells), untreated NC complete death
  cell death after MSDH: moderate death
[5]; PC w/CD (lipofuscin loaded cells)
  cell survival after MSDH: able to survive
[5]; PC w/CD (lipofuscin loaded cells), untreated PC moderate death
  cell death after MSDH: no death
THP-1 cells; LDL treatments over 7 days, HβCD added on day 6 (FIG. 3A)
  lysosomal destabilization/permeability caused by 7-ketocholesterol (7KC-LDL): attenuated
THP-1 cells; nLDL, oxLDL and 7KC-LDL (FIG. 3B)
  633 nm/520 nm ratio of acridine orange signal: improved
[6]
  decrease in autofluorescence from day 10 to day 12: 23%

## methyl-β-cyclodextrin [MβCD]
Cultured cells
  efficiency of cholesterol removal compared with β-cyclodextrin: more efficient
